Calls of active or inactive are those of the source. The rule behind the calls is not given here.
What was measured:
[1] = Resistant factor, ratio of IC50 for human A549/TR cells to IC50 for human A549 cells; assay type: functional
A549/TR [2] = test: Antiproliferative activity against human A549/TR cells at 1 uM after 72 hrs by MTT assay; assay type: functional
A549 = test: cells; details: Homo sapiens, A549, 72 h
Description: Antiproliferative activity against human A549 cells after 72 hrs by MTT assay

A549/TR [3] = test: Antiproliferative activity against human A549/TR cells after 72 hrs by MTT assay; assay type: functional, cell-based
A549/TR [4] = test: Induction of apoptosis in human A549/TR cells assessed as early apoptotic cells at 4.8 uM after 24 hrs by Annexin-V-FITC/propidium iodide staining-based flow cytometric analysis (reference value: 3.42%); assay type: functional
A549/TR [5] = test: Induction of apoptosis in human A549/TR cells assessed as viable cells at 4.8 uM after 24 hrs by Annexin-V-FITC/propidium iodide staining-based flow cytometric analysis (reference value: 95.1%); assay type: functional; details: read-out: Activity
A549/TR [6] = test: Cell cycle arrest in human A549/TR cells assessed as accumulation at G0/G1 phase at 2.4 uM after 24 hrs by propidium iodide/RNase-staining based flow cytometric analysis (reference value: 62.5%); assay type: functional
MRC5 = test: Induction of nitric oxide production in human MRC5 cells at 50 uM after 6 hrs by Griess assay; assay type: cell-based; details: mrc5, 6 h
A549/TR [7] = test: Induction of apoptosis in human A549/TR cells assessed as late apoptotic cells at 1.2 uM after 24 hrs by Annexin-V-FITC/propidium iodide staining-based flow cytometric analysis (reference value: 1.24%); assay type: functional
A549/TR [8] = test: Induction of apoptosis in human A549/TR cells assessed as early apoptotic cells at 1.2 uM after 24 hrs by Annexin-V-FITC/propidium iodide staining-based flow cytometric analysis (reference value: 3.42%); assay type: functional
A549/TR [9] = test: Cell cycle arrest in human A549/TR cells assessed as accumulation at G2/M phase at 2.4 uM after 24 hrs by propidium iodide/RNase-staining based flow cytometric analysis (reference value: 24.7%); assay type: functional
A549/TR [10] = test: Induction of apoptosis in human A549/TR cells assessed as necrotic cells at 4.8 uM after 24 hrs by Annexin-V-FITC/propidium iodide staining-based flow cytometric analysis (reference value: 0.22%); assay type: functional
A549/TR [11] = test: Induction of apoptosis in human A549/TR cells assessed as early apoptotic cells at 2.4 uM after 24 hrs by Annexin-V-FITC/propidium iodide staining-based flow cytometric analysis (reference value: 3.42%); assay type: functional
A549/TR [12] = test: Cell cycle arrest in human A549/TR cells assessed as accumulation at G2/M phase at 4.8 uM after 24 hrs by propidium iodide/RNase-staining based flow cytometric analysis (reference value: 24.7%); assay type: functional
A549/TR [13] = test: Induction of apoptosis in human A549/TR cells assessed as late apoptotic cells at 2.4 uM after 24 hrs by Annexin-V-FITC/propidium iodide staining-based flow cytometric analysis (reference value: 1.24%); assay type: functional
A549/TR [14] = test: Induction of apoptosis in human A549/TR cells assessed as necrotic cells at 1.2 uM after 24 hrs by Annexin-V-FITC/propidium iodide staining-based flow cytometric analysis (reference value: 0.22%); assay type: functional
A549/TR [15] = test: Induction of apoptosis in human A549/TR cells assessed as late apoptotic cells at 4.8 uM after 24 hrs by Annexin-V-FITC/propidium iodide staining-based flow cytometric analysis (reference value: 1.24%); assay type: functional
A549/TR [16] = test: Cell cycle arrest in human A549/TR cells assessed as accumulation at G0/G1 phase at 1.2 uM after 24 hrs by propidium iodide/RNase-staining based flow cytometric analysis (reference value: 62.5%); assay type: functional
A549/TR [17] = test: Induction of apoptosis in human A549/TR cells assessed as viable cells at 2.4 uM after 24 hrs by Annexin-V-FITC/propidium iodide staining-based flow cytometric analysis (reference value: 95.1%); assay type: functional; details: read-out: Activity
A549/TR [18] = test: Induction of ROS generation in human A549/TR cells at 2.4 to 9.6 uM after 24 hrs by DCFH-DA dye-based flow cytometric analysis; assay type: functional, cell-based
A549/TR [19] = test: Induction of nitric oxide production in human A549/TR cells at 50 uM after 6 hrs by Griess assay; assay type: functional, cell-based
A549/TR [20] = test: Cell cycle arrest in human A549/TR cells assessed as accumulation at G2/M phase at 1.2 uM after 24 hrs by propidium iodide/RNase-staining based flow cytometric analysis (reference value: 24.7%); assay type: functional
A549/TR [21] = test: Induction of apoptosis in human A549/TR cells assessed as necrotic cells at 2.4 uM after 24 hrs by Annexin-V-FITC/propidium iodide staining-based flow cytometric analysis (reference value: 0.22%); assay type: functional
A549/TR [22] = test: Induction of apoptosis in human A549/TR cells assessed as viable cells at 1.2 uM after 24 hrs by Annexin-V-FITC/propidium iodide staining-based flow cytometric analysis (reference value: 95.1%); assay type: functional; details: read-out: Activity
A549/TR [23] = test: Downregulation of Lon expression in human A549/TR cells at 4.8 uM after 24 hrs by Western blot analysis; assay type: functional, cell-based
A549/TR [24] = test: Cell cycle arrest in human A549/TR cells assessed as accumulation at G0/G1 phase at 4.8 uM after 24 hrs by propidium iodide/RNase-staining based flow cytometric analysis (reference value: 62.5%); assay type: functional

## C[C@H](N)C(=O)OCCN(C)/[N+]([O-])=N/Oc1cc(N2CCN(C(=O)[C@]34CCC(C)(C)C[C@H]3[C@H]3C(=O)C=C5[C@@]6(C)C=C(C#N)C(=O)C(C)(C)[C@@H]6CC[C@@]5(C)[C@]3(C)CC4)CC2)c([N+](=O)[O-])cc1[N+](=O)[O-]
[1]
  Ratio IC50: 0.7
A549/TR [2]
  Activity: >50%
A549
  IC50: 1070 nM
A549/TR [3]
  IC50: 697 nM

## C[C@H](N)C(=O)OCCN(C)/[N+]([O-])=N/Oc1cc(NCCOC(=O)[C@]23CCC(C)(C)C[C@H]2[C@H]2C(=O)C=C4[C@@]5(C)C=C(C#N)C(=O)C(C)(C)[C@@H]5CC[C@@]4(C)[C@]2(C)CC3)c([N+](=O)[O-])cc1[N+](=O)[O-]
[1]
  Ratio IC50: 0.8
A549/TR [2]
  Activity: >50%
A549
  IC50: 1440 nM
A549/TR [3]
  IC50: 1090 nM

## CN(CCO)/[N+]([O-])=N/Oc1cc(NCCOC(=O)[C@]23CCC(C)(C)C[C@H]2[C@H]2C(=O)C=C4[C@@]5(C)C=C(C#N)C(=O)C(C)(C)[C@@H]5CC[C@@]4(C)[C@]2(C)CC3)c([N+](=O)[O-])cc1[N+](=O)[O-]
[1]
  Ratio IC50: 0.6
A549/TR [2]
  Activity: >50%
A549
  IC50: 1440 nM
A549/TR [3]
  IC50: 820 nM

## COC(=O)[C@]12CCC(C)(C)C[C@H]1[C@H]1C(=O)C=C3[C@@]4(C)C=C(C#N)C(=O)C(C)(C)[C@@H]4CC[C@@]3(C)[C@]1(C)CC2 [BARDOXOLONE METHYL]
A549/TR [4]
  Activity: 7.36%
A549/TR [5]
  viability at 4.8 µM: 83.4%
A549/TR [6]
  Activity: 54.7%
MRC5
  Activity: Non-Toxic
A549/TR [7]
  Activity: 0.8%
A549/TR [8]
  Activity: 4.06%
A549/TR [9]
  Activity: 32.1%
A549/TR [10]
  Activity: 0.17%
A549/TR [11]
  Activity: 6.14%
A549/TR [12]
  Activity: 39.4%
A549/TR [13]
  Activity: 1.95%
A549/TR [14]
  Activity: 0.14%
A549/TR [15]
  Activity: 3.03%
A549/TR [16]
  Activity: 62.3%
A549/TR [17]
  viability at 2.4 µM: 91.8%
[1]
  Ratio IC50: 0.8
A549/TR [18]
  Activity: Active
A549
  IC50: 2070 nM
A549/TR [19]
  Activity: inactive
A549/TR [20]
  Activity: 24.9%
A549/TR [21]
  Activity: 0.13%
A549/TR [22]
  viability at 1.2 µM: 94.9%
A549/TR [23]
  Activity: Active
A549/TR [24]
  Activity: 47.4%
A549/TR [3]
  IC50: 1700 nM
